Experimental data as given in US20250171414A1, “COMPOUND SERVING AS MASP-2 INHIBITOR, PHARMACEUTICAL COMPOSITION, PREPARATION METHOD THEREFOR, AND USE THEREOF” (WUHAN CREATERNA SCIENCE AND TECHNOLOGY CO., LTD., priority 2022, published 2025).

System: lectin pathway (MBL) in human serum
Assay: Inhibition of activity of lectin pathway (MBL) in human serum (WIESLAB Complement System MBL Pathway kit)
Type: biochemical
Conditions: 1% human serum
Procedure: The inhibition of the activity of the lectin pathway (MBL) in human serum by compounds was detected using a WIESLAB® Complement System MBL Pathway kit (SVAR, COMPLMP320). Test compounds were each serially diluted in a buffer (Diluent MP), and 1% human serum was incubated with the diluted compound solution for 15 min at room temperature. 100 μL of the mixture was added to a microplate and incubated at 37° C. for 60 min. The liquid in the wells was discarded, and the microplate was washed three times with a washing solution. A Conjugate antibody solution was added at 100 μL/well, and the resulting mixture was incubated for 30 min at 25° C. The liquid in the wells was discarded, and the microplate was washed three times with a washing solution; a substrate solution was added at 100 μL/well, and the resulting mixture was incubated for 30 min at 25° C.; the terminator was added at 50 μL/well, and the absorbance at 405 nm was detected within 30 min by using a microplate reader.

IC50 [nM]	Structure (SMILES)
12.8	Cc1ccc(C[C@@H]2CN[C@@H](C(=O)N[C@@H](C)C(=O)NC3CCc4nc(N)ccc43)C2)cc1 (stereo partly drawn) [Compound L004, (2R,4S)—N-((2S)-1-((2-amino-6,7-dihydro-5H-cyclopenta[b]pyridin-5-yl)amino)-1-oxopropan-2-yl)-4-(4-methylbenzyl) pyrrolidine-2-carboxamide]
7.08	CC(c1ccccc1)[C@H]1CN[C@@H](C(=O)N[C@@H](C)C(=O)NC2CCc3nc(N)ccc32)C1 (stereo partly drawn) [Compound L009, (2R,4S)—N-((2S)-1-((2-amino-6,7-dihydro-5H-cyclopenta[b]pyridin-5-yl)amino)-1-oxopropan-2-yl)-4-(1-phenylethyl) pyrrolidine-2-carboxamide]
7.55	Cc1cc(C[C@@H]2CN[C@@H](C(=O)N[C@@H](C)C(=O)NC3CCc4nc(N)ccc43)C2)ccn1 (stereo partly drawn) [Compound L011, (2R,4S)—N-((2S)-1-((2-amino-6,7-dihydro-5H-cyclopenta[b]pyridin-5-yl)amino)-1-oxopropan-2-yl)-4-((2-methylpyridin-4-yl)methyl) pyrrolidine-2-carboxamide]
6.62	C[C@H](NC(=O)[C@H]1C[C@H](Cc2nc3cc(Cl)ccc3s2)CN1)C(=O)NC1CCc2nc(N)ccc21 (stereo partly drawn) [Compound L013, (2R,4R)—N-((2S)-1-((2-amino-6,7-dihydro-5H-cyclopenta[b]pyridin-5-yl)amino)-1-oxopropan-2-yl)-4-((5-chlorobenzo[d]thiazol-2-yl)methyl) pyrrolidine-2-carboxamide]
1.99	COc1cc2ccccc2cc1C[C@@H]1CN[C@@H](C(=O)N[C@@H](C)C(=O)NC2CCc3nc(N)ccc32)C1 (stereo partly drawn) [Compound L015, (2R,4S)—N-((2S)-1-((2-amino-6,7-dihydro-5H-cyclopenta[b]pyridin-5-yl)amino)-1-oxopropan-2-yl)-4-((3-methoxynaphthalen-2-yl)methyl) pyrrolidine-2-carboxamide]
4.64	Cc1cccc(C[C@@H]2CN[C@@H](C(=O)N[C@@H](C)C(=O)NC3CCc4nc(N)ccc43)C2)c1 (stereo partly drawn) [Compound L016, (2R,4S)—N-((2S)-1-((2-amino-6,7-dihydro-5H-cyclopenta[b]pyridin-5-yl)amino)-1-oxopropan-2-yl)-4-(3-methylbenzyl) pyrrolidine-2-carboxamide]
6.96	C[C@H](NC(=O)[C@H]1C[C@H](C2(c3ccccc3)CC2)CN1)C(=O)NC1CCc2nc(N)ccc21 (stereo partly drawn) [Compound L017, (2R,4R)—N-((2S)-1-((2-amino-6,7-dihydro-5H-cyclopenta[b]pyridin-5-yl)amino)-1-oxopropan-2-yl)-4-(1-phenylcyclopropyl) pyrrolidine-2-carboxamide]
3.75	C[C@H](NC(=O)C1CC(c2ccccc2)CCN1)C(=O)NC1CCc2nc(N)ccc21 (stereo partly drawn) [Compound L021, N-((2S)-1-((2-amino-6,7-dihydro-5H-cyclopenta[b]pyridin-5-yl)amino)-1-oxopropan-2-yl)-4-phenylpiperidine-2-carboxamide]
6.34	C[C@H](NC(=O)[C@H]1CN(Cc2ccccc2)CCN1)C(=O)NC1CCc2nc(N)ccc21 (stereo partly drawn) [Compound L024, (2R)—N-((2S)-1-((2-amino-6,7-dihydro-5H-cyclopenta[b]pyridin-5-yl)amino)-1-oxopropan-2-yl)-4-benzylpiperazine-2-carboxamide]
5.52	C[C@H](NC(=O)[C@H]1CN(c2cccc3ccccc23)CCN1)C(=O)NC1CCc2nc(N)ccc21 (some centres unmarked) [Compound L025]
4.49	Nc1ccc2c(n1)CCC2NC(=O)[C@@H]1CCCN1C(=O)[C@H]1C[C@H](Cc2ccc(F)cc2)CN1 (stereo partly drawn) [Compound L031, (2S)—N-(2-amino-6,7-dihydro-5H-cyclopenta[b]pyridin-5-yl)-1-((2R,4S)-4-(4-fluorobenzyl)pyrrolidine-2-carbonyl) pyrrolidine-2-carboxamide]

The remaining lines, values behind:

Structure (SMILES)	IC50 [nM]
Cc1cc(C2=C[C@@H](C(=O)N[C@@H](C)C(=O)N[C@@H]3CCc4nc(N)ccc43)NCC2)ccc1F (single isomer, unassigned) [Compound L071-IS-02]	7.85
C[C@H](NC(=O)[C@H]1CC(c2cccc(F)c2)CCN1)C(=O)NC1CCc2nc(N)ccc21 (stereo in doubt) [Compound L039-IS-02, (2R,4S)-N-((2S)-1-((2-amino-6,7-dihydro-5H-cyclopenta[b]pyridin-5-yl)amino)-1-oxopropan-2-yl)-4-(3-fluorophenyl)piperidine-2-carboxamide]	2.36
C[C@H](NC(=O)c1cc(-c2ccccc2)c[nH]1)C(=O)N[C@@H]1CCc2nc(N)ccc21 [Compound L020-IS-01, N—((S)-1-(((R)-2-amino-6,7-dihydro-5H-cyclopenta[b]pyridin-5-yl)amino)-1-oxopropan-2-yl)-4-phenyl-1H-pyrrole-2-carboxamide]	15
C[C@H](NC(=O)[C@H]1C[C@@H](c2ccccc2)CCN1)C(=O)NC1CCc2nc(N)ccc21 (stereo partly drawn) [Compound L021-IS-01, (2R,4S)—N-((2S)-1-((2-amino-6,7-dihydro-5H-cyclopenta[b]pyridin-5-yl)amino)-1-oxopropan-2-yl)-4-phenylpiperidine-2-carboxamide]	0.26
C[C@H](NC(=O)[C@H]1C[C@@H](c2ccc(F)cc2)CCN1)C(=O)NC1CCc2nc(N)ccc21 (stereo partly drawn) [Compound L033-IS-02, (2R,4S)—N-((2S)-1-((2-amino-6,7-dihydro-5H-cyclopenta[b]pyridin-5-yl)amino)-1-oxopropan-2-yl)-4-(4-fluorophenyl) piperidine-2-carboxamide]	2.26
C[C@H](NC(=O)[C@H]1C[C@@H](c2ccccc2F)CCN1)C(=O)NC1CCc2nc(N)ccc21 (stereo partly drawn) [Compound L038-IS-02, (2R,4S)—N-((2S)-1-((2-amino-6,7-dihydro-5H-cyclopenta[b]pyridin-5-yl)amino)-1-oxopropan-2-yl)-4-(2-fluorophenyl) piperidine-2-carboxamide]	4.76
C[C@H](NC(=O)[C@H]1C[C@@H](c2cccc(C(F)(F)F)c2)CCN1)C(=O)NC1CCc2nc(N)ccc21 (stereo partly drawn) [Compound L044-IS-02, (2R,4S)-N-((2S)-1-((2-amino-6,7-dihydro-5H-cyclopenta[b]pyridin-5-yl)amino)-1-oxopropan-2-yl)-4-(3-(trifluoromethyl)phenyl)piperidine-2-carboxamide]	1.83
C[C@H](NC(=O)[C@H]1C[C@@H](c2ccc(F)c(F)c2)CCN1)C(=O)NC1CCc2nc(N)ccc21 (stereo partly drawn) [Compound L045-IS-02, (2R,4S)-N-((2S)-1-((2-amino-6,7-dihydro-5H-cyclopenta[b]pyridin-5-yl)amino)-1-oxopropan-2-yl)-4-(3,4-difluorophenyl)piperidine-2-carboxamide]	4.11
C[C@H](NC(=O)[C@H]1C[C@@H](c2cccc(OC(F)(F)F)c2)CCN1)C(=O)NC1CCc2nc(N)ccc21 (stereo partly drawn) [Compound L046-IS-02, (2R,4S)-N-((2S)-1-((2-amino-6,7-dihydro-5H-cyclopenta[b]pyridin-5-yl)amino)-1-oxopropan-2-yl)-4-(3-(trifluoromethoxy)phenyl)piperidine-2-carboxamide]	3.71
C[C@H](NC(=O)[C@H]1C[C@@H](c2ccc(F)cc2F)CCN1)C(=O)NC1CCc2nc(N)ccc21 (stereo partly drawn) [Compound L047-IS-02, (2R,4S)-N-((2S)-1-((2-amino-6,7-dihydro-5H-cyclopenta[b]pyridin-5-yl)amino)-1-oxopropan-2-yl)-4-(2,4-difluorophenyl)piperidine-2-carboxamide]	3.06
C[C@H](NC(=O)[C@H]1C[C@@H](c2cccc(F)c2F)CCN1)C(=O)NC1CCc2nc(N)ccc21 (stereo partly drawn) [Compound L048-IS-02, (2R,4S)-N-((2S)-1-((2-amino-6,7-dihydro-5H-cyclopenta[b]pyridin-5-yl)amino)-1-oxopropan-2-yl)-4-(2,3-difluorophenyl)piperidine-2-carboxamide]	6.08
Nc1ccc2c(n1)CC[C@H]2NC(=O)[C@H]1[C@H]2C[C@H]2CN1C(=O)[C@H]1C[C@H](Cc2ccc(F)cc2)CN1 [Compound L055-IS-02, (1S,2R,5R)—N—((R)-2-amino-6,7-dihydro-5H-cyclopenta [b]pyridin-5-yl)-3-((2R,4S)-4-(4-fluorobenzyl)pyrrolidine-2-carbonyl)-3-azabicyclo[3.1.0]hexane-2-carboxamide]	7
C[C@H](NC(=O)[C@@H]1C=C(c2ccc(F)c(C(F)(F)F)c2)CCN1)C(=O)N[C@@H]1CCc2nc(N)ccc21 [Compound L070-IS-02, (S)-N-((S)-1-(((R)-2-amino-6,7-dihydro-5H-cyclopenta[b]pyridin-5-yl)amino)-1-oxopropan-2-yl)-4-(4-fluoro-3-(trifluoromethyl)phenyl)-1,2,5,6-tetrahydropyridine-2-carboxamide]	17.6
C[C@H](NC(=O)[C@@H]1C=C(c2ccc(F)c(Cl)c2)CCN1)C(=O)N[C@@H]1CCc2nc(N)ccc21 [Compound L072-IS-02, (S)-N-((S)-1-(((R)-2-amino-6,7-dihydro-5H-cyclopenta[b]pyridin-5-yl)amino)-1-oxopropan-2-yl)-4-(3-chloro-4-fluorophenyl)-1,2,5,6-tetrahydropyridine-2-carboxamide]	9.26
C[C@H](NC(=O)[C@@H]1C=C(c2ccc(F)cc2C(F)(F)F)CCN1)C(=O)N[C@@H]1CCc2nc(N)ccc21 [Compound L073-IS-02, (S)-N-((S)-1-(((R)-2-amino-6,7-dihydro-5H-cyclopenta[b]pyridin-5-yl)amino)-1-oxopropan-2-yl)-4-(4-fluoro-2-(trifluoromethyl)phenyl)-1,2,5,6-tetrahydropyridine-2-carboxamide]	4.25
